Reference: patent US7807381B2, “Methods for assessing CDK5 activation and function” (The Board of Regents of the University of Texas System, priority 2007, dated 2010)

How the values were obtained:
Cdk5 sites = test: Quantitative immunoblot of Cdk5-site phosphorylation in acute striatal slices incubated with NMDA; format: cell-based; details: NMDA at doses and times indicated, n=3-12
Protocol: (§1) FIGS. 5A-B—NMDA receptor activation inhibits Cdk5 and the cytoplasmic domain is a Cdk5 inhibitor. (FIG. 5A) Reduction in phosphorylation of three Cdk5 sites by NMDA. Quantitative immunoblot analyses is shown of acute striatal slices incubated with NMDA for the doses and times indicated, n=3-12. *p<0.05; **p<0.01 vs. control, one-way ANOVA with Dunnett's multiple comparison test. (FIG. 5B) Inhibition of Cdk5-dependent phosphorylation of inhibitor-1 by NR2B as assessed by time-course (top), dose-response (middle), and Line-Weaver Burke (bottom) analyses of in vitro phosphorylation reactions conducted in the presence of the indicated inhibitors or control proteins.
To determine if these observations were related, the inventors conducted in vitro phosphorylation reactions with Cdk5 and a test substrate, protein phosphatase inhibitor-1. […] Kinetic analysis confirmed that the NR2B receptor cytoplasmic domain functions as a potent and selective inhibitor of Cdk5 (IC50˜4 μM) and indicated a noncompetitive inhibition mechanism. […] These new data further confirm that NR2B can block Cdk5 activity, and further, that these interactions may be targeted for disruption so that Cdk5 may be uncoupled from NMDA receptors.

Cdk5 = Cdk5 (Homo sapiens, UniProt Q00535); test: in vitro phosphorylation reactions with Cdk5 and test substrate protein phosphatase inhibitor-1; format: biochemical; details: preliminary data
Cdk5, sequence (Q00535 whole entry, species assumed): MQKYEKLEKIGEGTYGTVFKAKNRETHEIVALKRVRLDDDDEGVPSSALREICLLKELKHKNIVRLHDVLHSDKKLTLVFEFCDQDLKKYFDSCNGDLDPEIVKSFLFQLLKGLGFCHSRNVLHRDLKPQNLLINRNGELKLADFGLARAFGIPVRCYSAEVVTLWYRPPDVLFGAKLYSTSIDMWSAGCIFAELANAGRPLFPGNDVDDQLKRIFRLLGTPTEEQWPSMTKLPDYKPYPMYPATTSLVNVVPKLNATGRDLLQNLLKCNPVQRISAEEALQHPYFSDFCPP
Protocol: as §1
To determine if these observations were related, the inventors conducted in vitro phosphorylation reactions with Cdk5 and a test substrate, protein phosphatase inhibitor-1. […] Kinetic analysis confirmed that the NR2B receptor cytoplasmic domain functions as a potent and selective inhibitor of Cdk5 (IC50˜4 μM) and indicated a noncompetitive inhibition mechanism. […]
Cdk5 phosphorylation activity assays may generally comprise ^32P-incoporation into substrates as determined by phosphorimager analysis. Alternatively, phosphorylation may be detected by either Western blot or ELISA using a control Cdk5 substrate and a phosphorylation state-specific antibody to a Cdk5 phosphorylation site on the substrate. […]

Row | Molecule | phosphorylation of three Cdk5 sites (Cdk5 sites) | inhibition of Cdk5 (qualitative) (Cdk5)
1 | CN[C@H](CC(=O)O)C(=O)O [NMDA] | Reduction | –
2 | peptide encompassing amino acid residues 1101-1130 of NR2B: a peptide encompassing amino acid residues 1101-1130 of NR2B (EFDEIELAYRRRPPRSPDHKRYFRDKEGLR; UniProt Q13224 1101-1130, looked up, fragment) | – | effective inhibitor
